Several values for one entry are separate records, joined by “and”; a condition that tells them apart may be missing. Equal values may be shown once.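 Grown in 96-well plates, cells were treated for 48 hours with each compound at five concentrations. Insufficient inhibition: endpoint recorded as highest concentration tested. At the GI50, growth is halved.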 Activity calls are given as the source filed them. Rule as the data show it: active = GI50 up to about 1.1 µM and inactive = higher.
Legend:
Test in all cases: NCI anticancer screen, dose series, 48 h
MOLT-4 = test system: MOLT-4
HCC 2998 = test system: HCC 2998
CAKI-1 = test system: CAKI-1
UO-31 = test system: UO-31
HOP-62 = test system: HOP-62
HT-29 = test system: HT-29
ACHN = test system: ACHN
HOP-92 = test system: HOP-92
IGROV-1 = test system: IGROV-1
NCI-H460 = test system: NCI-H460
SK-MEL-28 = test system: SK-MEL-28
HL-60 = test system: HL-60
SK-MEL-2 = test system: SK-MEL-2
SF-539 = test system: SF-539
RPMI-8226 = test system: RPMI-8226
LOX IMVI = test system: LOX IMVI
RXF 393 = test system: RXF 393

Measured: GI50

C=CCc1cc(OC)c2c(c1)C(O)CC(c1ccc(OC)c(OC)c1)O2 (stereo not drawn)
inactive: MOLT-4 38.6 µM | HCC 2998 > 100 µM | CAKI-1 73.3 µM | UO-31 > 100 µM | HOP-62 > 100 µM | HT-29 > 100 µM | ACHN > 100 µM | HOP-92 20.6 µM | IGROV-1 > 100 µM | NCI-H460 > 100 µM | SK-MEL-28 > 100 µM | HL-60 24.9 µM | SK-MEL-2 > 100 µM | SF-539 78.2 µM

COc1ccc(O)c2c1C(=O)CCCC2=O
inactive: MOLT-4 > 100 µM | HCC 2998 > 100 µM | RPMI-8226 > 100 µM | CAKI-1 > 100 µM | UO-31 > 100 µM | HOP-62 > 100 µM | HT-29 > 100 µM | ACHN > 100 µM | IGROV-1 > 100 µM | NCI-H460 > 100 µM | SK-MEL-28 > 100 µM | HL-60 > 100 µM | SK-MEL-2 > 100 µM | LOX IMVI > 100 µM | SF-539 > 100 µM

CCCN(CCC)c1c([N+](=O)[O-])cc(C(=O)N(CC)CC)cc1[N+](=O)[O-]
inactive: MOLT-4 16.4 µM | HCC 2998 37.1 µM | RPMI-8226 11.9 µM | CAKI-1 25.1 µM | UO-31 18 µM | HOP-62 29.4 µM | HT-29 22.6 µM | ACHN 25.5 µM | RXF 393 17.4 µM | IGROV-1 32.3 µM | NCI-H460 15.9 µM | SK-MEL-28 22.9 µM | HL-60 14 µM | SK-MEL-2 16.7 µM | LOX IMVI 16 µM | SF-539 24.7 µM

CC(C)S(=O)(=O)n1c(N)nc2ccc(/C(=N/O)c3ccccc3)cc21 [ENVIROXIME]
inactive: MOLT-4 14 µM | HCC 2998 22 µM | RPMI-8226 10.3 µM | CAKI-1 14.2 µM | UO-31 17.3 µM | HOP-62 13.9 µM | HT-29 16.9 µM | ACHN 13.7 µM | RXF 393 11.4 µM | HOP-92 3.61 µM | IGROV-1 19 µM | NCI-H460 26.1 µM | SK-MEL-28 36.1 µM | HL-60 12.2 µM | SK-MEL-2 20.9 µM | SF-539 15 µM

C/C(=N\NC(=O)CC#N)c1c(O)cc(C)oc1=O
inactive: MOLT-4 > 100 µM | HCC 2998 > 100 µM | CAKI-1 > 100 µM | UO-31 > 100 µM | HOP-62 > 100 µM | HT-29 > 100 µM | ACHN > 100 µM | HOP-92 > 100 µM | IGROV-1 > 100 µM | NCI-H460 > 100 µM | SK-MEL-28 > 100 µM | HL-60 > 100 µM | SK-MEL-2 > 100 µM | LOX IMVI > 100 µM | SF-539 > 100 µM

COc1ccc(C2=NN(C(C)=O)c3nc4ccccc4nc3O2)cc1
inactive: MOLT-4 > 100 µM | HCC 2998 > 100 µM | RPMI-8226 > 100 µM | UO-31 46.9 µM | HOP-62 23.1 µM | HT-29 > 100 µM | ACHN 24.4 µM | HOP-92 16.4 µM | IGROV-1 3.33 µM | NCI-H460 32.1 µM | SK-MEL-28 92.3 µM | HL-60 > 100 µM | SK-MEL-2 8.02 µM | SF-539 17.8 µM

O=C(O)C12C3CCCC1C2CC3 (stereo not drawn)
inactive: MOLT-4 > 100 µM | RPMI-8226 > 100 µM | CAKI-1 > 100 µM | UO-31 > 100 µM | HOP-62 > 100 µM | HT-29 > 100 µM | ACHN > 100 µM | RXF 393 > 100 µM | HOP-92 > 100 µM | IGROV-1 > 100 µM | NCI-H460 > 100 µM | SK-MEL-28 > 100 µM | HL-60 > 100 µM | SK-MEL-2 > 100 µM | LOX IMVI > 100 µM | SF-539 > 100 µM

CC(C)NC1CCCCC2c3ccccc3C12O (stereo not drawn)
inactive: MOLT-4 > 100 µM | RPMI-8226 > 100 µM | UO-31 > 100 µM | HOP-62 > 100 µM | HT-29 > 100 µM | ACHN > 100 µM | RXF 393 > 100 µM | NCI-H460 > 100 µM | SK-MEL-28 > 100 µM | HL-60 > 100 µM | SK-MEL-2 > 100 µM | LOX IMVI > 100 µM

CCCCCCCCCCCc1c(O)c(=O)c2c(oc3c(=O)c(CCCCCCCCCCC)c(O)c(=O)c3n2-c2ccc(N(C)C)cc2)c1=O
inactive: MOLT-4 > 100 µM | RPMI-8226 91.2 µM | CAKI-1 15.7 µM | HOP-62 20.7 µM | HT-29 23.1 µM | ACHN 20.7 µM | RXF 393 25 µM | IGROV-1 24.3 µM | NCI-H460 18.6 µM | SK-MEL-28 18 µM | HL-60 27.1 µM | SK-MEL-2 21.7 µM | LOX IMVI 24.2 µM | SF-539 20.3 µM

CC(O)C1OC(n2ccc(=O)[nH]c2=O)CC1n1cncn1 (stereo not drawn)
inactive: MOLT-4 > 100 µM | HCC 2998 > 100 µM | RPMI-8226 > 100 µM | CAKI-1 > 100 µM | UO-31 > 100 µM and 98.9 µM | HOP-62 > 100 µM | HT-29 > 100 µM | ACHN > 100 µM | RXF 393 > 100 µM | IGROV-1 > 100 µM | NCI-H460 > 100 µM | SK-MEL-28 > 100 µM | HL-60 > 100 µM | SK-MEL-2 > 100 µM | LOX IMVI > 100 µM

O=C1NC2OCC(O)C(O)C2O1 (stereo not drawn)
inactive: MOLT-4 > 100 µM | HCC 2998 > 100 µM | CAKI-1 > 100 µM | UO-31 > 100 µM | HOP-62 > 100 µM | HT-29 > 100 µM | ACHN > 100 µM | HOP-92 > 100 µM | IGROV-1 > 100 µM | NCI-H460 > 100 µM | SK-MEL-28 > 100 µM | HL-60 > 100 µM | SK-MEL-2 > 100 µM | LOX IMVI > 100 µM | SF-539 > 100 µM

COCN/C(N)=N/C#N
inactive: MOLT-4 > 100 µM | HCC 2998 > 100 µM | RPMI-8226 > 100 µM | CAKI-1 > 100 µM | UO-31 > 100 µM | HOP-62 > 100 µM | HT-29 > 100 µM | ACHN > 100 µM | RXF 393 > 100 µM | HOP-92 > 100 µM | IGROV-1 > 100 µM | NCI-H460 > 100 µM | SK-MEL-28 > 100 µM | HL-60 > 100 µM | SK-MEL-2 > 100 µM | SF-539 > 100 µM

Nc1nc(SCC(=O)c2ccccc2)c2[nH]cnc2n1
inactive: MOLT-4 > 100 µM | HCC 2998 > 100 µM | RPMI-8226 > 100 µM | CAKI-1 > 100 µM | HOP-62 > 100 µM | HT-29 > 100 µM | ACHN > 100 µM | HOP-92 46.5 µM | IGROV-1 > 100 µM | NCI-H460 > 100 µM | SK-MEL-28 > 100 µM | HL-60 > 100 µM | SK-MEL-2 > 100 µM | LOX IMVI > 100 µM | SF-539 > 100 µM
